Literature values as cited in patent US10533225B2, “Methods and systems for monitoring, diagnosing, and treating chronic obstructive pulmonary disease” (Trustees of Boston University, priority 2012, dated 2020).

Key:
[1] = system: PI3K pathway activation; conditions: smokers with airway epithelial cell dysplasia
[2] = system: ER stress markers and airspace; conditions: mice, administration

SMILES | airway PI3K pathway activation [1] | ER stress markers [2] | airspace change [2]
O[C@H]1[C@H](O)[C@@H](O)[C@H](O)[C@@H](O)[C@H]1O [myo-inositol] | reversible |  | 
C=CC=O [acrolein] |  | increase in ER stress markers | airspace enlargement
